This passage reports Activity and MIC results from ChEMBL document CHEMBL1255282, “Escherichia coli isolate coproducing 16S rRNA Methylase and CTX-M-type extended-spectrum beta-lactamase isolated from an outpatient in the United States” (2008).

Converted amounts (≈) assume the structure as drawn. The source made the active and inactive calls. The rule behind the calls is not given here. Bounds are passed on as bounds.

What all share (type): functional
Test [1] deals with Escherichia coli. Description: Antibacterial activity against 16S rRNA methylase RmtB and CTX-M-65 ESBL producing Escherichia coli isolate ECRB1 by Etest.
Test [2] concerns Escherichia coli. Description: Antibacterial activity against Escherichia coli DH10B harboring pBCSK expressing rmtB gene by Etest.
Test [3] concerns Escherichia coli. The test is described as follows: Antibacterial activity against 16S rRNA methylase RmtB and CTX-M-65 ESBL producing Escherichia coli DH10B by Etest.
Test [4] concerns Escherichia coli. The test is described as follows: Antibacterial activity against 16S rRNA methylase rmtB and CTX-M-65 ESBL producing rifampin resistant Escherichia coli isolate ECRB1 by Etest.

As for `O=C(O)c1cn(C2CC2)c2cc(N3CCNCC3)c(F)cc2c1=O`, the result with Escherichia coli [1] was Active.
By MIC is commonly meant the lowest concentration that inhibits growth of the organism. High values mean a need for much substance, low ones inhibition by little substance. As for `NCC[C@H](O)C(=O)N[C@@H]1C[C@H](N)[C@@H](O[C@H]2O[C@H](CN)[C@@H](O)[C@H](O)[C@H]2O)[C@H](O)[C@H]1O[C@H]1O[C@H](CO)[C@@H](O)[C@H](N)[C@H]1O` [AMIKACIN], the minimal inhibitory concentration (MIC) is over 256 µg/mL with Escherichia coli [2], over 256 µg/mL in the test on Escherichia coli [1], at least 128 µg/mL against Escherichia coli [3] and at least 128 µg/mL in the test with Escherichia coli [4].
`CO/N=C(\C(=O)N[C@@H]1C(=O)N2C(C(=O)O)=C(COC(C)=O)CS[C@H]12)c1csc(N)n1` [CEFOTAXIME]: the MIC in the test on Escherichia coli [1] worked out at 64 µg/mL (≈ 141 µM); against Escherichia coli [3], 96 µg/mL (≈ 211 µM); with Escherichia coli [4] it was 96 µg/mL (≈ 211 µM).
As for `NC[C@H]1O[C@H](O[C@H]2[C@H](O)[C@@H](O[C@H]3O[C@H](CO)[C@@H](O)[C@H](N)[C@H]3O)[C@H](N)C[C@@H]2N)[C@H](N)C[C@@H]1O` [TOBRAMYCIN], the MIC with Escherichia coli [2] was over 256 µg/mL; with Escherichia coli [1] it was over 256 µg/mL; against Escherichia coli [3], at least 128 µg/mL; against Escherichia coli [4] it was at least 128 µg/mL.
In the case of GENTAMICIN, the MIC with Escherichia coli [2] is over 256 µg/mL; in the test with Escherichia coli [1], over 256 µg/mL; in the test on Escherichia coli [3], over 128 µg/mL; against Escherichia coli [4] it was over 128 µg/mL.
